Where two headings read alike, the source gives them in different places.
How the values were obtained:
Type in all cases: biochemical
[1] = molecular target: T1, JAK2 (Homo sapiens, UniProt O60674); experiment: JAK2 microfluidic kinase assay (Caliper EZ Reader II, FAM labeled peptide substrate); conditions: (0.25 nM), 1 mM ATP
T1 construct: purchased Carna Biosciences
Procedure: (§1) Compounds were tested against JAK1, JAK2, JAK2V617F and TYK2.
(§2) Assay Formats: JAK activity was determined in the reaction buffer 50 mM HEPES, 0.01% Brij35, 10 mMMgCl2, 2 mMDTT by a microfluidic assay. The phosphorylation of a FAM labeled peptide substrate was monitored in the Caliper EZ Reader II (Perkin Elmer). The assay condition for each batch of enzyme (Carna Biosciences) was optimized to obtain 10% conversion rate of peptide substrate.
(§3) The test compounds were dissolved in DMSO to a stock concentration of 10 mM. 3-fold serially diluted compounds with top concentration of 5 μM were pre-incubated with JAK1, JAK2, JAK2V617F or TYK2 for 10 min at ambient temperature. The final DMSO concentration of assay mixture was 1%. FAM labeled peptide substrate (final concentration […]) and ATP (1 mM concentration) were sequentially added to initiate the kinase reaction at 28° C. The reaction was stopped by adding 50 mMEDTA. The reaction time for JAK1, JAK2, JAK2V617F and TYK2 was 120 min, 20 min, 30 min and 10 min, respectively.
(§4) The well in the test plate without enzyme was defined as 100% inhibition. And the well without compound but with equivalent DMSO was defined as no inhibition. The percent inhibition was calculated by the following formula. % Inhibition=(Conversionmax−Conversionsample)/(Conversionmax−Conversionmin)*100Conversionmax means the conversion rate in the positive well without addition of compound Conversionmin means the conversion rate in the well without addition of enzyme Conversionsample means the conversion rate of test compounds
(§5) The dose-response (percent inhibition) curve was plotted and IC50 values were determined by GraphPad software.

[2] = molecular target: T2, JAK1 (Homo sapiens, UniProt P23458); experiment: JAK1 microfluidic kinase assay (Caliper EZ Reader II, FAM labeled peptide substrate); conditions: (5 nM), 1 mM ATP
T2 construct: purchased Carna Biosciences
T2 sequence (P23458 whole entry): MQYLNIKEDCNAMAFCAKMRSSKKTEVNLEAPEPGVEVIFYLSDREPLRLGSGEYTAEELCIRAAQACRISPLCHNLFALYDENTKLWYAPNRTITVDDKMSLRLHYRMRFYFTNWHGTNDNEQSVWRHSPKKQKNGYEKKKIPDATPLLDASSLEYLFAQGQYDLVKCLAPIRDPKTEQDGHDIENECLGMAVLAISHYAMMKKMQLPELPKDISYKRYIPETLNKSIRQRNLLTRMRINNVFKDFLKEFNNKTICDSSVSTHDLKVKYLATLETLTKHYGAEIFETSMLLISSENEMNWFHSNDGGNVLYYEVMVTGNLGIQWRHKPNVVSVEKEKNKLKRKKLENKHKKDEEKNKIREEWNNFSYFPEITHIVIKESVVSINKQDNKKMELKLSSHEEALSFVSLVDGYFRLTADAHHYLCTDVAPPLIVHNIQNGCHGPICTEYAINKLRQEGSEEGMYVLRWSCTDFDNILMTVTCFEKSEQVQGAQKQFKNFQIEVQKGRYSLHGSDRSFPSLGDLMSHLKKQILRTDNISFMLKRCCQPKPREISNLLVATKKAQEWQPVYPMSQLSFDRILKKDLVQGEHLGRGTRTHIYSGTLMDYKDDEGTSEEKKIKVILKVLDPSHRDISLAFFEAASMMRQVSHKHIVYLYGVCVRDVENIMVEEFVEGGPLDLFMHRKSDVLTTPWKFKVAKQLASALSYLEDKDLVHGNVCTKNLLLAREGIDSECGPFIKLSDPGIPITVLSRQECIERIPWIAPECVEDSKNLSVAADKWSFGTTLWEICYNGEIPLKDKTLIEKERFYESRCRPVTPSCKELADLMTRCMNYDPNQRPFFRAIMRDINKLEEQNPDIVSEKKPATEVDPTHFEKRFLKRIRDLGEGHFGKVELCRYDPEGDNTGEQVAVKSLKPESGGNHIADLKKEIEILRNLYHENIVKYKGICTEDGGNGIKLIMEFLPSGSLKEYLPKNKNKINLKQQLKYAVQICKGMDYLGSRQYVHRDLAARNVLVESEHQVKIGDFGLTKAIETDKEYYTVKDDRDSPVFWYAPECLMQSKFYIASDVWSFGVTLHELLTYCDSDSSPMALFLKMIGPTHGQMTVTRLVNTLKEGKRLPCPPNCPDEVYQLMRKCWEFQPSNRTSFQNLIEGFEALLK
Procedure: as §1, §2, §3, §4, §5

[3] = molecular target: T3, JAK2V617F (Homo sapiens, UniProt O60674, V617F); experiment: JAK2V617F microfluidic kinase assay (Caliper EZ Reader II, FAM labeled peptide substrate); conditions: (2.5 nM), 1 mM ATP
T3 construct: purchased Carna Biosciences
T3 sequence (O60674 whole entry V617F): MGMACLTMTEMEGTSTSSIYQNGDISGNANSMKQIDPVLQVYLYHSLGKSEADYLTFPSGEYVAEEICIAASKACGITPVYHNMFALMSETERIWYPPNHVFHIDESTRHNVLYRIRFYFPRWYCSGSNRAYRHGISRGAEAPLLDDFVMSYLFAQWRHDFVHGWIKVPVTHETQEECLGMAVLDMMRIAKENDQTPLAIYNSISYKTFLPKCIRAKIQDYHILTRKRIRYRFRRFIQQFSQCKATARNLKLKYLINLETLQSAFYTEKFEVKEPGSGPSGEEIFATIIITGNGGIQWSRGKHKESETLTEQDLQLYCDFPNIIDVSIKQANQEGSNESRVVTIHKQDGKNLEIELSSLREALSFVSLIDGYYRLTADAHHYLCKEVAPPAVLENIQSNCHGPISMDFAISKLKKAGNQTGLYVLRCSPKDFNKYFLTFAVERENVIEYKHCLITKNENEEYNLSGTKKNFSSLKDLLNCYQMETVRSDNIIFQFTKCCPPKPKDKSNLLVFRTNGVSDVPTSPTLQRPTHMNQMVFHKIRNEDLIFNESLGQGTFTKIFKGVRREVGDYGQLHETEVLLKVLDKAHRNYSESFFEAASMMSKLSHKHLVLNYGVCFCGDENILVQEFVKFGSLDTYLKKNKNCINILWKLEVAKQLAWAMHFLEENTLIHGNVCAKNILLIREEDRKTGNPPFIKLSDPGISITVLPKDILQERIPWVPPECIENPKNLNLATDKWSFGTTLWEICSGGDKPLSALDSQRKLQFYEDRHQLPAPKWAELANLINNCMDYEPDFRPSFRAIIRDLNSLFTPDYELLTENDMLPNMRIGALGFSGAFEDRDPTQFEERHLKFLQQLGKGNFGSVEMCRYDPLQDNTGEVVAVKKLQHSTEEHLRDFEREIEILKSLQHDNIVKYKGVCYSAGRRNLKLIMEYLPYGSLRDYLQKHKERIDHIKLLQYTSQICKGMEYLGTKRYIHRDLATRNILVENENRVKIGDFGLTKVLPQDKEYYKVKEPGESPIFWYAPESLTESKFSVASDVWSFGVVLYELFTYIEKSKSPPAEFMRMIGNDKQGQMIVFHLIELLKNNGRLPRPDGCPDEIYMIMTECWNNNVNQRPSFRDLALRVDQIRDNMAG
Procedure: as §1, §2, §3, §4, §5

[4] = molecular target: T4, TYK2 (Homo sapiens, UniProt P29597); experiment: TYK2 microfluidic kinase assay (Caliper EZ Reader II, FAM labeled peptide substrate); conditions: (2.5 nM), 1 mM ATP; Table 2; read-out: IC50 TYK2 (2.5 nM) (1 mM ATP)
T4 construct: purchased Carna Biosciences
T4 sequence (P29597 whole entry): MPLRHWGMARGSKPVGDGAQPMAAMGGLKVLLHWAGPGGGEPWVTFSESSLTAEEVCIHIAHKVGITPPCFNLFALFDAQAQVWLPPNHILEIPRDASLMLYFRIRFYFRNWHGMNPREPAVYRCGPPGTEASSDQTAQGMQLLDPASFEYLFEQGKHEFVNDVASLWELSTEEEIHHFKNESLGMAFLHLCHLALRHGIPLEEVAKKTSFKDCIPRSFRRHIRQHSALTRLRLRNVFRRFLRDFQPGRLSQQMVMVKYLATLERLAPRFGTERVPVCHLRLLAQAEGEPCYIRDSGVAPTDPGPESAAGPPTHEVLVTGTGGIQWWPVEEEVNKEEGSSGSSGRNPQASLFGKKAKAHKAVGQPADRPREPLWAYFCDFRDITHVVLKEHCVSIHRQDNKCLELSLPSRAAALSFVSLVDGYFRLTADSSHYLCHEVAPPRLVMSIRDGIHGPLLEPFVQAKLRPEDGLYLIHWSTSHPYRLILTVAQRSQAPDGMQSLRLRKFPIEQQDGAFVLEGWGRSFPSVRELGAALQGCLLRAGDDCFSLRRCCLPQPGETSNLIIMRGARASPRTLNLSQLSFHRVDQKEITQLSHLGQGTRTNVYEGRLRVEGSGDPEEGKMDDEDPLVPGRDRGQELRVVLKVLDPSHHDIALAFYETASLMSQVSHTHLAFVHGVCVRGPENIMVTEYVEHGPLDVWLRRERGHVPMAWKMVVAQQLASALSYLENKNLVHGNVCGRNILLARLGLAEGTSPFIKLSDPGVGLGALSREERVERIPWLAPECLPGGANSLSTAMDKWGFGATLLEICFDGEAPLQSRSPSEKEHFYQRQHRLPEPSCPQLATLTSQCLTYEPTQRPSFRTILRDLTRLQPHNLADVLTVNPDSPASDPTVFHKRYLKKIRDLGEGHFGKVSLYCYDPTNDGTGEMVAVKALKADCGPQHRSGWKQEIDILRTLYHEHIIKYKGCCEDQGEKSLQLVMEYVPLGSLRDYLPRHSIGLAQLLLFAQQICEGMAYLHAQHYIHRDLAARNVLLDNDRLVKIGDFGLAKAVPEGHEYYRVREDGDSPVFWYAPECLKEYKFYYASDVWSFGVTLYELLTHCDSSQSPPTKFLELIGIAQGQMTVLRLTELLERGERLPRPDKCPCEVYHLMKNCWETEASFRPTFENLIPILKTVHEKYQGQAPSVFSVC
Procedure: as §1, §2, §3, §4, §5

[5] = Table 2, read-out: IC50 JAK2 (0.25 nM) (1 mM ATP)
[6] = Table 2, read-out: IC50 JAK1 (5 nM) (1 mM ATP)
[7] = Table 2, read-out: IC50 J2V617F (2.5 nM) (1 mM ATP)
[8] = Table 3B, literature compounds, read-out: JAK2 (0.25 nM) (1 mM ATP)
[9] = Table 3B, literature compounds, read-out: JAK1 (5 nM) (1 mM ATP)
[10] = Table 3B, literature compounds, read-out: J2V617F (2.5 nM) (1 mM ATP)

T1 sequence (O60674 whole entry): as the sequence (O60674 whole entry V617F) above, with F617V counted along it

| SMILES | IC50 [2, 6] [nM] | IC50 [3, 7] [nM] | other results |
| --- | --- | --- | --- |
| Cc1cnc(Nc2cnn(C3CC3)c2)nc1-c1ccc(N(C)CC(C)(C)C#N)c(F)c1 [Example 35, 3-((4-(2-((1-cyclopropyl-1H-pyrazol-4-yl)amino)-5-methylpyrimidin-4-yl)-2-fluorophenyl)(methyl)amino)-2,2-dimethylpropanenitrile] | 72.1 |  | IC50 [1, 5]: 1.66 nM |
| CN(CC(C)(C)C#N)c1ccc(-c2nc(Nc3cnn(C4CC4)c3)ncc2Cl)cc1F [Example 36, 3-((4-(5-chloro-2-((1-cyclopropyl-1H-pyrazol-4-yl)amino)pyrimidin-4-yl)-2-fluorophenyl)(methyl)amino)-2,2-dimethylpropanenitrile] | 103 |  | IC50 [1, 5]: 4.6 nM |
| Cc1cnc(Nc2cnn(CC#N)c2)nc1-c1ccc(OCC2(C#N)CC2)c(F)c1 [Example 31, 1-((4-(2-((1-(cyanomethyl)-1H-pyrazol-4-yl)amino)-5-methylpyrimidin-4-yl)-2-fluorophenoxy)methyl)cyclopropane-carbonitrile] | 7.94 |  | IC50 [1, 5]: 3.2 nM |
| CC(=O)N1CCC(n2cc(Nc3ncc(C)c(-c4ccc(OCC(C)(C)C#N)c(F)c4)n3)cn2)CC1 [Example 28, 3-(4-(2-((1-(1-acetylpiperidin-4-yl)-1H-pyrazol-4-yl)amino)-5-methylpyrimidin-4-yl)-2-fluorophenoxy)-2,2-dimethylpropanenitrile] | < 2.5 | < 1.25 |  |
| CC(C)(C#N)COc1ccc(-c2nc(Nc3cnn(C4CCOCC4)c3)ncc2F)cc1F [Example 25, 3-(2-fluoro-4-(5-fluoro-2-((1-(tetrahydro-2H-pyran-4-yl)-1H-pyrazol-4-yl)amino)pyrimidin-4-yl)phenoxy)-2,2-dimethylpropanenitrile] | 32 | 32 |  |
| Cc1cnc(Nc2cnn(C3CCOCC3)c2)nc1-c1ccc(OCC2(C#N)CC2)nc1 [Example 14, 1-(((5-(5-methyl-2-((1-(tetrahydro-2H-pyran-4-yl)-1H-pyrazol-4-yl)amino)pyrimidin-4-yl)pyridin-2-yl)oxy)methyl)cyclopropanecarbonitrile] | 202 | 163 | IC50 [4]: 351 nM |
| Cc1cnc(Nc2cnn(C)c2)nc1-c1ccc(OC(C)C)c(F)c1 [Example 47, 4-(3-fluoro-4-isopropoxyphenyl)-5-methyl-N-(1-methyl-1H-pyrazol-4-yl)pyrimidin-2-amine, reference compound] |  |  | IC50 [1, 8]: 61.3 nM; IC50 [2, 9]: 48.6 nM; IC50 [3, 10]: 84.2 nM |
| Cc1cnc(Nc2cnn(C3CC3)c2)nc1-c1ccc2c(c1)CC(C#N)CO2 (centres unmarked) [Example 34, 6-(2-((1-cyclopropyl-1H-pyrazol-4-yl)amino)-5-methylpyrimidin-4-yl)chroman-3-carbonitrile] | 136 |  | IC50 [1, 5]: 58.8 nM |
| Cc1cnc(Nc2cnn(C3CC3)c2)nc1-c1ccc(OC2CC(C#N)C2)cc1 (centres unmarked) [Example 2, 3-(4-(2-((1-cyclopropyl-1H-pyrazol-4-yl)amino)-5-methylpyrimidin-4-yl)phenoxy)cyclobutanecarbonitrile] | 72.7 | 171 |  |
| COc1ccc(-c2nc(Nc3cnn(C)c3)ncc2C)cc1F [Example 45, 4-(3-fluoro-4-methoxyphenyl)-5-methyl-N-(1-methyl-1H-pyrazol-4-yl)pyrimidin-2-amine, reference compound] |  |  | IC50 [1, 8]: 121 nM; IC50 [2, 9]: 110 nM; IC50 [3, 10]: 206 nM |
| CCCOc1ccc(-c2nc(Nc3cnn(C)c3)ncc2C)cc1F [Example 48, 4-(3-fluoro-4-propoxyphenyl)-5-methyl-N-(1-methyl-1H-pyrazol-4-yl)pyrimidin-2-amine, reference compound] |  |  | IC50 [1, 8]: 39.6 nM; IC50 [2, 9]: 25.7 nM; IC50 [3, 10]: 60 nM |
| Cc1cnc(Nc2cnn(C3CCOCC3)c2)nc1-c1ccc(OCC(C)(C)C#N)cc1 [Example 15, 2,2-dimethyl-3-(4-(5-methyl-2-((1-(tetrahydro-2H-pyran-4-yl)-1H-pyrazol-4-yl)amino)pyrimidin-4-yl)phenoxy)propanenitrile] | 5.71 | < 1.25 |  |
| Cc1cnc(Nc2cnn(C3CCOCC3)c2)nc1-c1ccc(OC(C)C(C)(C)C#N)cc1 (centres unmarked) [Example 16, 2,2-dimethyl-3-(4-(5-methyl-2-((1-(tetrahydro-2H-pyran-4-yl)-1H-pyrazol-4-yl)amino)pyrimidin-4-yl)phenoxy)butanenitrile] | 39.2 | 6.33 |  |
| CC(C)(C#N)COc1ccc(-c2nc(Nc3cnn(C4CCOCC4)c3)ncc2Cl)cc1F [Example 26, 3-(4-(5-chloro-2-((1-(tetrahydro-2H-pyran-4-yl)-1H-pyrazol-4-yl)amino)pyrimidin-4-yl)-2-fluorophenoxy)-2,2-dimethylpropanenitrile] | 6.17 | < 1.25 |  |
| Cc1cnc(Nc2cnn(CC#N)c2)nc1-c1ccc(OCC(C)(C)C#N)c(F)c1 [Example 30, 3-(4-(2-((1-(cyanomethyl)-1H-pyrazol-4-yl)amino)-5-methylpyrimidin-4-yl)-2-fluorophenoxy)-2,2-dimethylpropanenitrile] | < 2.5 |  | IC50 [1, 5]: 0.3 nM |

Second part, led by results:

| IC50 [2, 6] [nM] | IC50 [3, 7] [nM] | SMILES | other results |
| --- | --- | --- | --- |
| 13.6 | < 1.25 | N#CC1(COc2ccc(-c3nc(Nc4cnn(C5CCOCC5)c4)ncc3Cl)cc2F)CC1 [Example 23, 1-((4-(5-chloro-2-((1-(tetrahydro-2H-pyran-4-yl)-1H-pyrazol-4-yl)amino)pyrimidin-4-yl)-2-fluorophenoxy)methyl)cyclopropane-carbonitrile] |  |
| 5.53 | 1.49 | N#CC1(COc2ccc(-c3nc(Nc4cnn(C5CC5)c4)ncc3Cl)cc2F)CC1 [Example 27, 1-((4-(5-chloro-2-((l-cyclopropyl-1H-pyrazol-4-yl)amino)pyrimidin-4-yl)-2-fluorophenoxy)methyl)cyclopropane carbonitrile] |  |
| 84.2 | 111 | N#CC1(COc2ccc(-c3nc(Nc4cnn(C5CC5)c4)ncc3F)cc2F)CC1 [Example 24, 1-((4-(2-((1-cyclopropyl-1H-pyrazol-4-yl)amino)-5-fluoropyrimidin-4-yl)-2-fluorophenoxy)methyl)cyclopropane-carbonitrile] |  |
| 5.58 | < 1.25 | CC(=O)N1CCC(n2cc(Nc3ncc(C)c(-c4ccc(OCC5(C#N)CC5)c(F)c4)n3)cn2)CC1 [Example 13, 1-((4-(2-((1-(1-acetylpiperidin-4-yl)-1H-pyrazol-4-yl)amino)-5-methylpyrimidin-4-yl)-2-fluorophenoxy)methyl)cyclopropane-carbonitrile] |  |
| 136 | 56.8 | N#CC1(COc2ccc(-c3nc(Nc4cnn(C5CCOCC5)c4)ncc3F)cc2F)CC1 [Example 22, 1-((2-fluoro-4-(5-fluoro-2-((1-(tetrahydro-2H-pyran-4-yl)-1H-pyrazol-4-yl)amino)pyrimidin-4-yl)phenoxy)methyl)cyclopropane-carbonitrile] |  |
| 6.2 | < 1.25 | Cc1cnc(Nc2cnn(C3CCN(C(=O)C4CC4)CC3)c2)nc1-c1ccc(OCC2(C#N)CC2)c(F)c1 [Example 8, 1-((4-(2-((1-(1-(cyclopropanecarbonyl)piperidin-4-yl)-1H-pyrazol-4-yl)amino)-5-methylpyrimidin-4-yl)-2-fluorophenoxy)methyl)cyclopropane-carbonitrile] |  |
| 3.32 | < 1.25 | Cc1cnc(Nc2cnn(C3CC3)c2)nc1-c1ccc(OCC2(C#N)CC2)c(F)c1 [Example 5, 1-((4-(2-((1-cyclopropyl-1H-pyrazol-4-yl)amino)-5-methylpyrimidin-4-yl)-2-fluorophenoxy)methyl)cyclopropane-carbonitrile] | IC50 [4]: 3.26 nM |
| 7.06 | < 1.25 | Cc1cnc(Nc2cnn(C3CCN(C(=O)C4(C)CC4)CC3)c2)nc1-c1ccc(OCC2(C#N)CC2)c(F)c1 [Example 9, 1-((2-fluoro-4-(5-methyl-2-((1-(1-(1-methylcyclopropanecarbonyl)piperidin-4-yl)-1H-pyrazol-4-yl)amino)pyrimidin-4-yl)phenoxy)methyl)cyclopropane-carbonitrile] |  |
| 124 | 113 | Cc1cnc(Nc2cnn(C3CC3)c2)nc1-c1cc(F)c(OCC2(C#N)CC2)c(F)c1 [Example 10, 1-((4-(2-((1-cyclopropyl-1H-pyrazol-4-yl)amino)-5-methylpyrimidin-4-yl)-2,6-difluorophenoxy)methyl)cyclopropane carbonitrile] |  |
